Laboratory results published in ChEMBL document CHEMBL4831515 (J Med Chem, 2021).

Tests used:
[1] = system: Human immunodeficiency virus 1; assay: Antiviral activity against HIV1 3B infected in human MT4 cells assessed as reduction in virus-induced cytopathogenic effect by MTT assay; details: Human immunodeficiency virus 1, 3B
[2] = system: Human immunodeficiency virus 1; assay: Antiviral activity against HIV1 RES056 infected in human MT4 cells assessed as reduction in virus-induced cytopathogenic effect by MTT assay; details: Human immunodeficiency virus 1, RES056, MT4
[3] = system: Human immunodeficiency virus 2; assay: Antiviral activity against wild type HIV2 ROD infected in human MT4 cells assessed as reduction in virus-induced cytopathogenic effect by MTT assay; details: Human immunodeficiency virus 2, ROD
[4] = Cytotoxicity against human MT4 cells assessed as reduction in cell viability by MTT assay
[5] = Selectivity ratio of CC50 for human MT4 cells to IC50 for HIV1 RES056 infected in MT4 cells
[6] = target: Human immunodeficiency virus type 1 reverse transcriptase (Human immunodeficiency virus 1, UniProt Q72547); assay: Inhibition of wild type HIV1 reverse transcriptase assessed as reduction in biotin-dUTP incorporation into […] incubated for 1 hrs by ELISA
[7] = system: Human immunodeficiency virus 1; assay: Antiviral activity against HIV1 harboring L100I mutant infected in human MT4 cells assessed as reduction in virus-induced cytopathogenic effect by MTT assay; details: Human immunodeficiency virus 1, MT4
[8] = system: Human immunodeficiency virus 1; assay: Antiviral activity against HIV1 harboring K103N mutant infected in human MT4 cells assessed as reduction in virus-induced cytopathogenic effect by MTT assay; format: functional, organism-based; details: Human immunodeficiency virus 1, MT4
[9] = system: Human immunodeficiency virus 1; assay: Antiviral activity against wild type HIV1 harboring Y181C mutant infected in human MT4 cells assessed as reduction in virus-induced cytopathogenic effect by MTT assay; details: Human immunodeficiency virus 1, MT4
[10] = system: Human immunodeficiency virus 1; assay: Antiviral activity against wild type HIV1 harboring Y188L mutant infected in human MT4 cells assessed as reduction in virus-induced cytopathogenic effect by MTT assay; details: Human immunodeficiency virus 1, MT4
[11] = system: Human immunodeficiency virus 1; details: Human immunodeficiency virus 1, MT4
[12] = system: Human immunodeficiency virus 1; assay: Antiviral activity against HIV1 harboring F227L/V106A mutant infected in human MT4 cells assessed as reduction in virus-induced cytopathogenic effect by MTT assay; format: functional, organism-based; details: Human immunodeficiency virus 1, MT4
in vitro = details: human, MT4 cells
Description: Selectivity index, ratio of CC50 for human MT4 cells to EC50 for HIV1 harboring E138K mutant infected in human MT4 cells

With `Cc1cc(/C=C/C#N)cc(C)c1Oc1nc(NC2CCN(Cc3cc(=O)[nH]c(=O)[nH]3)CC2)nc2c1CSCC2` the EC50 [1] was 30.8 nM, the EC50 [2] was 881 nM and the EC50 [3] was greater than 23200 nM. The CC50 [4] was 23200 nM, the selectivity ratio [5] was 26 and the IC50 [6] was 171 nM.

Compound `Cc1ccnc2c1NC(=O)c1cccnc1N2C1CC1` [NEVIRAPINE] has an EC50 [2] greater than 15000 nM, an EC50 [3] greater than 15000 nM and a CC50 [4] greater than 15000 nM. For the same compound, the EC50 [7] was 2220 nM, the EC50 [8] was 12300 nM and the EC50 [9] was greater than 15000 nM. It also gave an EC50 [10] greater than 15000 nM, an EC50 [11] of 182 nM and an EC50 [12] greater than 15000 nM.

For `Cc1cc(/C=C/C#N)cc(C)c1Oc1nc(NC2CCN(Cc3cccc(C(N)=O)c3)CC2)nc2c1CSCC2`, the EC50 [1] was 50.4 nM, the EC50 [2] was 443 nM and the EC50 [3] was greater than 9450 nM. It also gave a CC50 [4] of 9450 nM, a selectivity ratio [5] of 21 and an IC50 [6] of 184 nM.

`Cc1cc(C#N)cc(C)c1Oc1nc(NC2CCN(Cc3cccc(C(N)=O)c3)CC2)nc2c1CSCC2` gave an EC50 [1] of 15.4 nM, an EC50 [2] of 1640 nM and an EC50 [3] greater than 236000 nM. For the same compound, the CC50 [4] was greater than 236000 nM, the selectivity ratio [5] was greater than 144 and the IC50 [6] was 144 nM.

For `Cc1cc(C#N)cc(C)c1Oc1nc(Nc2ccc(C#N)c(F)c2)nc2c1CSCC2`, the EC50 [1] was 13.5 nM, the EC50 [2] was 262 nM and the EC50 [3] was greater than 269000 nM. The CC50 [4] was 269000 nM, the selectivity ratio [5] was 1030 and the IC50 [6] was 53 nM.

For `Cc1cc(C#N)cc(C)c1Oc1nc(Nc2ccc(C#N)nc2)nc2c1CSCC2`, the EC50 [1] was 14.1 nM, the EC50 [2] was 2430 nM and the EC50 [3] was greater than 288000 nM. The CC50 [4] was 288000 nM, the selectivity ratio [5] was 119 and the IC50 [6] was 43 nM.

In the case of `Cc1cc(/C=C/C#N)cc(C)c1Oc1nc(Nc2ccc(C#N)cc2F)nc2c1CSCC2`, the EC50 [1] is reported as 31 nM, the EC50 [2] is reported as 5810 nM and the EC50 [3] is reported as greater than 273000 nM. The CC50 [4] was greater than 273000 nM, the selectivity ratio [5] was greater than 47 and the IC50 [6] was 51 nM.

Compound `O=C1Nc2ccc(Cl)cc2[C@@](C#CC2CC2)(C(F)(F)F)O1` [EFAVIRENZ] has a CC50 [4] greater than 6340 nM and an EC50 [8] of 111 nM.

With `Cc1cc(C#N)cc(C)c1Oc1nc(NC2CCN(Cc3cc(=O)[nH]c(=O)[nH]3)CC2)nc2c1CSCC2` the EC50 [1] was 13.8 nM, the EC50 [2] was 3200 nM and the EC50 [3] was greater than 25600 nM. The CC50 [4] was 25600 nM, the selectivity ratio [5] was 8 and the IC50 [6] was 89 nM.

In the case of `Cc1cc(/C=C/C#N)cc(C)c1Oc1nc(Nc2ccc(C#N)cn2)nc2c1CSCC2`, the EC50 [1] is reported as 25.8 nM, the EC50 [2] is reported as 608 nM and the EC50 [3] is reported as greater than 246000 nM. It also gave a CC50 [4] of 246000 nM, a selectivity ratio [5] of 404 and an IC50 [6] of 59 nM.

For `Cc1cc(/C=C/C#N)cc(C)c1Oc1nc(NC2CCN(Cc3ccc([N+](=O)[O-])cc3)CC2)nc2c1CSCC2`, the EC50 [1] was 26.2 nM, the EC50 [2] was 160 nM and the EC50 [3] was greater than 59500 nM. The CC50 [4] was 59500 nM, the selectivity ratio [5] was 371 and the IC50 [6] was 232 nM.

With `Cc1cc(C#N)cc(C)c1Oc1nc(NC2CCN(Cc3ccc([N+](=O)[O-])cc3)CC2)nc2c1CSCC2` the EC50 [1] was 11.5 nM, the EC50 [2] was 2850 nM and the EC50 [3] was greater than 236000 nM. It also gave a CC50 [4] greater than 236000 nM, a selectivity ratio [5] greater than 83 and an IC50 [6] of 230 nM.

`Cc1cc(/C=C/C#N)cc(C)c1Oc1nc(NC2CCN(Cc3ccc(S(C)(=O)=O)cc3)CC2)nc2c1CSCC2` showed an EC50 [1] of 12.6 nM, an EC50 [2] of 116 nM and an EC50 [3] of 4810 nM. The CC50 [4] was 21500 nM, the selectivity ratio [5] was 186 and the EC50 [7] was 9.24 nM. It also gave an EC50 [8] of 8.48 nM, an EC50 [9] of 34.1 nM and an EC50 [10] of 60.2 nM. It also gave an EC50 [11] of 34.8 nM, an EC50 [12] of 14.9 nM and a selectivity ratio (in vitro) of 619.

`Cc1cc(C#N)cc(C)c1Oc1nc(Nc2ccc(C#N)cc2F)nc2c1CSCC2` gave an EC50 [1] of 45.5 nM, an EC50 [2] greater than 290000 nM and an EC50 [3] greater than 290000 nM. It also gave a CC50 [4] greater than 290000 nM, a selectivity ratio [5] greater than 1 and an IC50 [6] of 65 nM.

`Cc1cc(C#N)cc(C)c1Oc1nc(Nc2ccc(C#N)cn2)nc2c1CSCC2` gave an EC50 [1] of 68.7 nM, an EC50 [2] of 256000 nM and an EC50 [3] greater than 302000 nM. The CC50 [4] was greater than 302000 nM, the selectivity ratio [5] was greater than 1 and the IC50 [6] was 53 nM.
